In patent US8808713B2, “Compositions for pulmonary delivery of long-acting β2 adrenergic receptor agonists and associated methods and systems” (Pearl Thereapeutics, Inc., priority 2009, dated 2014):

Columns and labels:
[1] = system: patients with mild to moderate COPD; test: Multi-center clinical trial, single-dose crossover: spirometry (FEV1) and safety; details: 18 μg via Spiriva Handihaler
[2] = Visual observation of suspension quality / co-suspension in glass vials (settling, centrifugation); type: physicochemical
Procedure: The canisters were crimp sealed with 63 μl valves (# BK 357, Bespak, King's Lynn, UK) and filled with 12.4 g of HFA 134a (1,1,1,2-tetrafluoroethane) (Ineos Fluor, Lyndhurst, UK) by overpressure through the valve stem. After injecting the propellant, the canisters were sonicated for 15 seconds and agitated on a wrist action shaker for 30 minutes. The canisters were fitted with polypropylene actuators with a 0.3 mm orifice (# BK 636, Bespak, King's Lynn, UK). Additional inhalers for visual observation of suspension quality were prepared using glass vials.
The canisters were crimp sealed with 63 μl valves (Valois DF30/63 RCU, Les Vaudreuil, France) and filled with 9.5 mL of HFA 134a (Ineos Fluor, Lyndhurst, UK) by overpressure through the valve stem. After injecting the propellant, the canisters were sonicated for 15 seconds and agitated on a wrist action shaker for 30 minutes. Additional inhalers with suspending particles only were manufactured as control for each configuration.
Metered dose inhalers were prepared by weighing the target masses of micronized active agent particles and suspending particles into coated glass vials with 15 mL volume. […] For each configuration, additional glass bottles were filled with the respective amount of FF active agent particles without any suspending particles. […]

For `C[N+]1(C)[C@@H]2C[C@@H](OC(=O)C(O)(c3cccs3)c3cccs3)C[C@H]1[C@@H]1O[C@@H]12` [tiotropium], the “Mean time to ≧10% improvement in FEV1” value [1] was “approximately 3 hours”.

With `OCc1cc(C(O)CNCCCCCCOCCCCc2ccccc2)ccc1O` (stereo not drawn) [SX, 4-hydroxy-α1-[[[6-(4-phenylbutoxy)hexyl]amino]methyl]-1,3-benzenedimethanol, 1-hydroxy-2-naphthalenecarboxylate] the “Visual observation: sedimentation of SX crystals” value ([2]; glass vials heated up to 30° C.-35° C. in a water bath) was “sedimented rapidly”.

For `COc1ccc(CC(C)NCC(O)c2ccc(O)c(NC=O)c2)cc1.O=C(O)/C=C/C(=O)O` (racemic) [FF, (±)-2-hydroxy-5-[(1RS)-1-hydroxy-2-[[(1RS)-2-(4-methoxyphenyl)-1-methylethyl]-amino]ethyl]formanilide fumarate], the “Visual observation: sedimentation of crystalline FF” value ([2]; glass vials, HFA 134a, left to settle 24 h) was “sedimented quickly”.
